Where a SMILES comes first, the peptide text is derived from it.
Legend:
pituitaries = assay: In vitro growth hormone release study (incubated rat pituitaries, GH by RIA); assay type: cell-based; conditions: GH released at I3, I4 (I5) minus P2, mean ± SEM
Description: Female rats of the CD-1 strain were housed in a constant temperature room at 24° C. with 14 hours light and 10 hours darkness. The rats were fed Purina brand rat chow ab libitum. All studies were started between 0800 and 1000 hours.
Pituitaries were removed from 20 day old female rats. In each polytetrafluoroethylene beaker (10 ml) was incubated two pituitaries at 36° C. in 1 ml of lactated Ringer's solution in a Dubnoff Shaker (90 cycles/min.). All medium in each beaker was removed each hour (e.g., P1, P2, I3, I4, I5) and then fresh medium was added back to each beaker. Each medium removed was assayed for GH, in duplicate, by a standard radioimmunoassay (RIA).
The growth hormone agonist of Example 1 was not added to the incubation mediums employed during the first hour of the incubation period (P1) or to the incubation mediums employed during the second hour of the incubation period (P2). The growth hormone agonist of Example 1 was dissolved in dimethylsulfoxide (DMSO; 10:1, agonist:DMSO), added to each incubation medium employed during the third hour of the incubation period (I3), to each medium employed during the fourth hour of the incubation period (I4), and, when performed, to each medium employed during the fifth hour of the incubation period (I5). The release of growth hormone was recorded as ΔGH and calculated by subtracting the amount of GH released at P2 from that released at I3, I4, and, when performed, I5. The agonist activity was determined from the release at I3, I4, and, when performed, I5. The mean of the ΔGH values obtained from the three beakers per dosage level measured at I3, I4, and, when performed, I5 are set forth in Table VI.

[1] = tested on: Female rats of The CD-1 strain; assay: In vivo growth hormone release study (subcutaneous injection, serum GH by RIA); set-up: species or system rat; conditions: serum GH about 15 minutes after injection, 21 day old female rats, mean ± SEM
Description: Female rats of The CD-1 strain were housed in a constant temperature room at 24° C. with 14 hours light and 10 hours darkness. The rats were fed Purina brand rat chow ab libitum. All studies were started between 0800 and 1000 hours. Each female rat (21 days old; eight rats per dosage level shown in Table XXVI) was injected subcutaneously with a desired dosage of the peptide of Example 6. Approximately 15 minutes after injection, the rat was guillotined. A blood sample was collected from the guillotined rat. The blood sample was centrifuged and a serum sample was collected therefrom. Each serum sample was assayed for GH, in duplicate, by a standard radioimmunoassay (RIA).

[2] = dosage 1 ng/ml incubation medium
[3] = dosage 3 ng/ml incubation medium
[4] = dosage 10 ng/ml incubation medium
[5] = dosage 30 ng/ml incubation medium
[6] = dosage 1.0 μg/ml serum (so in the source)
[7] = dosage 3.0 μg/ml serum (so in the source)
[8] = dosage 10.0 μg/ml serum (so in the source)
[9] = dosage 30.0 μg/ml serum (so in the source)
[10] = dosage 0.3 μg/ml serum (so in the source)

In the case of `C[C@H](NC(=O)[C@@H](Cc1c[nH]c2ccccc12)NC(=O)[C@@H](N)Cc1c[nH]cn1)C(=O)N[C@@H](Cc1c[nH]c2ccccc12)C(=O)N[C@H](Cc1ccccc1)C(=O)N[C@@H](CCC(=O)O)C(N)=O` [H2 -His-D-Trp-Ala-Trp-D-Phe-Glu-NH2] (HELM PEPTIDE1{H.[dW].A.W.[dF].E.[am]}$$$$V2.0), the ΔGH (pituitaries; [2]) is reported as -78 ± 72 ng/ml incubation medium, the ΔGH (pituitaries; [3]) is reported as -294 ± 75 ng/ml incubation medium and the ΔGH (pituitaries; [4]) is reported as -243 ± 71 ng/ml incubation medium. The ΔGH (pituitaries; [5]) was 117 ± 41 ng/ml incubation medium, the ΔGH [1, 6] was 0.10 ± 0 ng/ml subcutaneous and the ΔGH [1, 7] was 1.50 ± 0.56 ng/ml subcutaneous. The ΔGH [1, 8] was 1.4 ± 0.78 ng/ml subcutaneous and the ΔGH [1, 9] was 8.06 ± 2.68 ng/ml subcutaneous.
In the case of `C[C@H](NC(=O)[C@@H](Cc1c[nH]c2ccccc12)NC(=O)[C@@H](N)Cc1c[nH]cn1)C(=O)N[C@@H](Cc1c[nH]c2ccccc12)C(=O)N[C@H](Cc1ccccc1)C(=O)N[C@@H](CCCCN)C(N)=O` [H2 -His-D-Trp-Ala-Trp-D-Phe-Lys-NH2] (HELM PEPTIDE1{H.[dW].A.W.[dF].K.[am]}$$$$V2.0), the ΔGH (pituitaries; [2]) is reported as 955 ± 272 ng/ml incubation medium, the ΔGH (pituitaries; [3]) is reported as 1,603 ± 305 ng/ml incubation medium and the ΔGH (pituitaries; [4]) is reported as 2,244 ± 173 ng/ml incubation medium. The ΔGH (pituitaries; [5]) was 2,198 ± 358 ng/ml incubation medium, the ΔGH [1, 10] was 6 ± 4 ng/ml subcutaneous and the ΔGH [1, 6] was 36 ± 15 ng/ml subcutaneous. The ΔGH [1, 7] was 66 ± 15 ng/ml subcutaneous, the ΔGH [1, 8] was 100 ± 19 ng/ml subcutaneous and the ΔGH [1, 9] was 122 ± 4 ng/ml subcutaneous.
With “H2 -3-N-Me-His-D-Trp-Ala-Trp-D-Phe-Lys-NH2” the ΔGH (pituitaries; [2]) was 165 ± 136 ng/ml incubation medium, the ΔGH (pituitaries; [4]) was 1,857 ± 254 ng/ml incubation medium and the ΔGH [1, 10] was 45.0 ± 10 ng/ml subcutaneous. The ΔGH [1, 8] was 128 ± 16 ng/ml subcutaneous.
With “H2 -His-D-Trp-Ala-Trp-D-Phe-Lys-NHCH2 CH3” the ΔGH (pituitaries; [2]) was 726 ± 115 ng/ml incubation medium, the ΔGH (pituitaries; [4]) was 1,688 ± 300 ng/ml incubation medium and the ΔGH [1, 10] was 13.0 ± 5 ng/ml subcutaneous. It also gave a ΔGH [1, 8] of 119 ± 12 ng/ml subcutaneous.
For H2 -His-D-Trp-Ala-Trp-D-Phe-Lys-OH, the ΔGH (pituitaries; [2]) was 467 ± 178 ng/ml incubation medium, the ΔGH (pituitaries; [4]) was 330 ± 167 ng/ml incubation medium and the ΔGH (pituitaries; dosage 100 ng/ml incubation medium) was 2,441 ± 353 ng/ml incubation medium. It also gave a ΔGH [1, 7] of 76 ± 24 ng/ml subcutaneous, a ΔGH [1, 8] of 119 ± 25 ng/ml subcutaneous and a ΔGH [1, 9] of 226 ± 43 ng/ml subcutaneous.

— patent US4411890A, “Synthetic peptides having pituitary growth hormone releasing activity” (Beckman Instruments, Inc., priority 1981, dated 1983)
